Results published in US20260144798A1, “Disruption of Vascular Smooth Muscle Relaxation by Carfilzomib May be the Primary Reason for CFZ-Induced Vascular Dysfunction” (AMGEN INC., priority 2019, published 2026).

How the values were obtained:
rat aortic rings = assay: sGC activator (cinaciguat, riociguat)-induced relaxation of rat aortic rings; settings: cinaciguat or riociguat (FIG. 4C)
Description: An isometric myograph (DMT 620M) was used for ex vivo measurement of vascular function. Eight-to 10-week old Sprague Dawley rats (purchased from Charles River Laboratories, Wilmington, MA) were first anesthetized with 3% isoflurane and then euthanized using inhaled desflurane. The aortas were isolated in an ice-cold, oxygenated (95% O2, 5% CO2) Krebs-Henseleit buffer (118.3 mM NaCl, 4.7 mM KCl, 1.2 mM MgSO4, 1.2 mM KH2PO4, 2.5 mM CaCl2, 25 mM NaHCO3, and 11.0 mM glucose; purchased from Sigma-Aldrich, St. Louis, MO). The thoracic aorta was carefully cleaned to remove perivascular fat and cut into 2-mm rings that were mounted between two stainless steel wires in the myograph chamber containing 8 mL of Krebs-Henseleit buffer in 95% O2 and 5% CO2 at 37° C. First, the rings were equilibrated in the chamber for 20 minutes, followed by a gradual increase of mechanical stretch until a final stretch of 10 mN (Newton) was reached. After an additional incubation with fresh buffer for 30 minutes, the rings were constricted with 8 mL of 80 mM KPSS (43 mM NaCl, 80 mM KCl, 2.5 mM CaCl2, 1.2 mM MgSO4, 1.2 mM KH2PO4, 25.0 mM NaHCO3, and 11.0 mM glucose) for 15 to 20 minutes, followed by 3 washes with the Krebs-Henseleit buffer until the force returned to the baseline stretch. The tension of the aortic rings was continuously measured with the Lab Chart 7 data acquisition system (ADInstruments, Colorado Springs, CO). […] The tension of the aortic rings was continuously measured with the Lab Chart 7 data acquisition system (ADInstruments, Colorado Springs, CO).
To assess the effect of CFZ on vascular contraction, the aortic rings were pre-treated with or without CFZ for 2 hours, followed by treatment with an increasing concentration of phenylephrine (PE) from 10 nM to 1 μM. […] The contraction was continuously measured and plotted as percent contraction normalized to the response of KPSS. […] The relaxation was continuously measured and plotted as percent relaxation normalized to the response with 1 μM PE.

sGC-β = assay: Western blot of sGC-β in rat aortic smooth muscle cells; type: cell-based; settings: CFZ for more than 12 hours (FIG. 4A)
Description: Each cell pellet was lysed in 50 to 70 μL RIPA buffer (Cell Signaling Technology, Danvers, MA) with the Halt™ protease and phosphatase inhibitor cocktail (Thermo Fisher Scientific). Lysates were quantitated and loaded onto the Li-COR Western blot system. Antibodies specific to phosphorylated eNOS and eNOS from Thermo Fisher Scientific, anti-Guanylyl Cyclase β1 (ER-19) (Sigma-Aldrich), and β-Actin (Sigma-Aldrich) were diluted 1:1000 for Western blot. Antibodies specific to p-VASP, VASP, and GADPH-HRP were purchased from Cell Signaling Technology.

GUCY1A3 = GUCY1A3 gene expression by RT-PCR in human aortic smooth muscle cells; type: cell-based; settings: 24-hour treatment, 2.7 μM CFZ, SMCs (FIG. 4B)
Description: To confirm whether results could be replicated in human tissue, human aortic smooth muscle cells (Lonza, Walkersville, MD) were cultured in SmGM-2™ Smooth Muscle Cell Growth Medium-2 BulletKit™ (Lonza). The cells were maintained at 37° C. in a humidified incubator with 5% CO2. Cells were seeded at a concentration of 2.5×10^5 cells/mL of medium. After 1 day of culture, fresh medium with or without 2.7 μM CFZ was added and incubated for 6 or 24 hours.
Cell pellets were lysed in Buffer RLT (Qiagen, Germantown, MD) supplemented with β-mercaptoethanol (Bio-Rad, Hercules, CA). RNA was isolated and purified using QIAcube (Qiagen). The RNA concentration and quality were determined by NanoDrop 8000 spectrophotometer (Thermo Fisher Scientific, Wilmington, DE). DNA contaminant was removed through DNase I (Promega, Madison, WI) digestion prior to quantitative RT-PCR. Quantitative RT-PCR was performed in the QuantStudio 7 Flex RT-PCR system (Thermo Fisher Scientific) with RNA-to-CT 1-Step Kit (Thermo Fisher Scientific) and TaqMan assays (Applied Biosystems, Foster City, CA). The TaqMan assays were GUCY1A3(Hs01015574_m1) and 18S rRNA. Multiplex reactions were run in triplicates with the genes of interest and 18S rRNA normalization control. The average relative quantities were calculated from three separate experiments.

mice = settings: depending on dosage and administration schedule; cited from earlier work

## CC(C)C[C@H](NC(=O)[C@H](CCc1ccccc1)NC(=O)CN1CCOCC1)C(=O)N[C@@H](Cc1ccccc1)C(=O)N[C@@H](CC(C)C)C(=O)[C@@]1(C)CO1 [CFZ, carfilzomib]
Rat aortic rings
  effect on VSM relaxation in the presence of sGC activators: did not interfere with VSM relaxation
sGC-β
  sGC-β protein level: increased with increasing exposure to CFZ
GUCY1A3
  upregulation of GUCY1A3 gene expression: more than 25 fold
mice
  effect on AMPKα/mTORC1 and PI3K/Akt/eNOS pathways: inhibit AMPKα/mTORC1 pathways
